Test results from patent US20170261494A1, “Disposable Single Cell Array for Personalized Diagnostics” (Northeastern University, priority 2016, published 2017).
Counter-ions that a name gives are not always drawn.

Key:
[1] = test system: HCT-116, HCT-116-siRNA-topo1 and HCT-116-siRNA-topo2 cells; assay: Single-cell array immunoblotting for topo1, topo2 and γH2AX in halo and nucleus; assay type: cell-based; conditions: alkaline solution, primary antibodies to topo1, topo2, γH2AX, fluorescent secondary antibodies
Procedure: (§1) Identification of topoisomerase complexes with DNA and histones at single-cell level can provide mechanistic confirmation on drug- or radiation-DNA interaction. Three colorectal cancer cell lines, HCT-116 (normal topo1/topo2 expression), HCT-116-siRNA-topo1 (low topo1 expression) and HCT-116-siRNA-topo2 (low topo2 expression), are treated with two drugs (one targets topo1 and the other targets topo2), followed by immunoblotting with the array of invention. First, cells are treated with CPT-11 (topo1 drug), and processed for use with the invention using SYBR SAFE dye to reflect the extent of DNA damage. […] In a second experiment, CPT-11 treated cells are subjected to an alkaline solution to allow damaged DNA diffusion (without fluorescence staining), and then incubated with three primary antibodies (topo1, topo2 and γH2AX) for 10 min. After washing to remove excess antibodies, three fluorescent secondary antibodies against topo1, topo2 and γ-H2AX are added. After washing away excess antibodies, the three proteins are detected with fluorescence imaging. […] Parallel studies with VP-16, which targets topo2 enzyme is performed. […] Similar experiments are performed to test X-ray irradiated cells. The results are compared to provide information on drug actions.

[2] = test system: A172 cells; assay: Paper-based single-cell array halo assay of DNA damage (NDF); design: species or system human; conditions: drug concentration 50 μM (0 at 0 μM); FIG. 6E/6F
[3] = test system: MCF7 cells; assay: as above; conditions: drug concentration 50 μM (0 at 0 μM); FIG. 6E/6F
Procedure: (§2) Fibroblast cells, human glioblastoma cells (A172) and breast cancer cells (MCF7) were cultured in standard conditions (5% CO2 in air at 37° C.) in RPMI-1640 medium supplemented with 10% (v/v) fetal bovine serum and 1% (v/v) penicillin/streptomycin. For obtaining individual cells, cells were trypsinized.
(§3) After exposure to anticancer treatment (radiation or chemotherapy drug), cells were seeded on the cell array precursor at a density of 1×10^6 cells/ml, forming ordered single-cell arrays (FIG. 1A). The quality of single cell arrays was primarily determined by surface roughness of the substrate (FIGS. 3E-H). As the paper surface became smoother, more cells were attached, and the array became more ordered. The attachment probability was derived as the ratio between adsorbed cells and the number of micro-patches. The probability of single cell array increased as the number of layers increased from 25±3.1%, 70±3.5%, to 87±6.4% for 1, 3 and 5 layers of ink, respectively. Five layers of ink provided a high quality substrate for single cell array formation, making this method ideal for paper-based single-cell halo assay.
(§4) After incubating cells on the paper for 30 min, unattached cells were rinsed away with PBS, followed by addition of 1.5 ml 1% low melting point (LGT)-agarose on paper. The substrate was kept at room temperature for 10 min to allow gel solidification. Then, cells on the paper were immersed in 0.3 M NaOH for 30 min at room temperature, and stained with diluted (×10000) SYBR green I solution for 15 min. After removing unbound dye, cells were imaged using an Olympus IX81 fluorescent microscope and the acquired images were analyzed with in-house image analysis software to quantify DNA damage. Each data point was averaged from at least 50 individual cells.
(§5) An in-house MATLAB image processing software was developed for quantifying DNA damage. In order to isolate individual cells, images were thresholded using Otsu's method into 4 levels. The first level was considered background; the second and third levels were combined to label halo; and the fourth level was used to label the nucleus. All non-background levels were combined to form a binary image of a cell. The eccentricity of each cell object was measured on a scale of 0 to 1, where a score of 0 corresponded to a perfectly circular object and a score of 1 corresponded to a line. Cell objects with an eccentricity>0.5 were removed from the image on the assumption that they contain overlapping cells (due to deposition of un-patterned cells). FIGS. 4A-F show the process of automatic analysis of the single-cell array using MATLAB software. The original image was transferred from a color image to a grayscale image (FIG. 4A). […] DNA damage measurements were calculated based on the halos and nuclei labeled for each cell. […]

[4] = test system: fibroblast cells; assay: as above; conditions: drug concentration 50 μM (0 at 0 μM); FIG. 6E/6F
Procedure: as §2, §3, §4, §5

[5] = test system: HCT-116, HCT-116-siRNA-topo1 and HCT-116-siRNA-topo2 cells; assay: Single-cell array halo assay in colorectal cancer cell lines with normal or low topo1/topo2 expression; assay type: cell-based; conditions: SYBR SAFE dye; compared among HCT-116, HCT-116-siRNA-topo1 and HCT-116-siRNA-topo2
Procedure: as §1

Compound: COc1cc([C@@H]2c3cc4c(cc3[C@@H](O[C@@H]3O[C@@H]5CO[C@@H](C)O[C@H]5[C@H](O)[C@H]3O)[C@H]3COC(=O)[C@H]23)OCO4)cc(OC)c1O [VP-16]
- Protein found in halos (topoisomerase trapped in damaged DNA) [1]: Only topo2 enzymes are trapped in damaged DNAs and diffused in halos

Compound: COc1cccc2c1C(=O)c1c(O)c3c(c(O)c1C2=O)C[C@@](O)(C(=O)CO)C[C@@H]3O[C@H]1C[C@H](N)[C@H](O)[C@H](C)O1 [doxorubicin, doxorubicin hydrochloride]
- NDF of A172 cells [2]: 3.91
- NDF of MCF7 cells [3]: 3.95
- NDF of fibroblast cells [4]: 4.63

Compound: CCc1c2c(nc3ccc(OC(=O)N4CCC(N5CCCCC5)CC4)cc13)-c1cc3c(c(=O)n1C2)COC(=O)[C@]3(O)CC [irinotecan, irinotecan hydrochloride]
- Halo size (extent of DNA damage) [5]: smallest in HCT-116-siRNA-topo1 cells
- NDF of MCF7 cells [3]: 4.05
- NDF of fibroblast cells [4]: 4.34
- Protein found in halos (topoisomerase trapped in damaged DNA) [1]: Only topo1 is found in halos
